Patent US11186564B2, “Dual NAV1.2/5HT2a inhibitors for treating CNS disorders” (Sunovion Pharmaceuticals Inc., priority 2016, dated 2021)
Like-named read-outs stand apart in the source and are kept apart here.

Columns and labels:
[1] = molecular target: human sodium channel NaV1.2 (Homo sapiens, UniProt Q99250); test: NaV1.2 inhibition, automated patch-clamp (Q-Patch HTX), slow inactivated state (state C); format: cell-based; details: for inhibition at 1 µM: 1 μM compound, read-out: NaV1.2 (% inh), 1 μM; for IC50: read-out: NaV1.2 IC50; for inhibition at 10 µM: read-out: NaV1.2 (% inh), 10 μM
Method in brief: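 IC50 comes from a least-squares fit of percent inhibition, relative to vehicle, of current in the slow-inactivated state. That state is reached by a 10 s prepulse to −50 mV, then 15 ms at −90 mV, then a 5 ms test pulse to 0 mV. Human NaV1.2 in stable CHO K-1 cells, held at −100 mV, automated patch clamp.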

[2] = molecular target: T1, recombinant human serotonin receptor 5-HT2A (Homo sapiens, UniProt P28223); test: 5-HT2A antagonist Ca2+ assay in CHO-K1 cells (method A aequorin luminescence / method B FLIPR fluorescence); format: cell-based; details: antagonist mode vs EC80 of reference agonist, method A or B
T1 construct: expressed in transfected cells; method B: loaded with Ca2+ dye
Method in brief: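 IC50 was obtained by nonlinear regression of percent inhibition of the EC80 agonist Ca2+ response in CHO-K1 cells stably expressing human 5-HT2A. The readout was aequorin luminescence with agonist injected 15 min after compound (A), or Ca2+-dye fluorescence on FLIPR with serotonin as agonist (B).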

[3] = hNaV1.2 CHO cells, slow inactivated state
[4] = 10 μM compound, hNaV1.2 CHO cells, slow inactivated state

T1 sequence (P28223 whole entry): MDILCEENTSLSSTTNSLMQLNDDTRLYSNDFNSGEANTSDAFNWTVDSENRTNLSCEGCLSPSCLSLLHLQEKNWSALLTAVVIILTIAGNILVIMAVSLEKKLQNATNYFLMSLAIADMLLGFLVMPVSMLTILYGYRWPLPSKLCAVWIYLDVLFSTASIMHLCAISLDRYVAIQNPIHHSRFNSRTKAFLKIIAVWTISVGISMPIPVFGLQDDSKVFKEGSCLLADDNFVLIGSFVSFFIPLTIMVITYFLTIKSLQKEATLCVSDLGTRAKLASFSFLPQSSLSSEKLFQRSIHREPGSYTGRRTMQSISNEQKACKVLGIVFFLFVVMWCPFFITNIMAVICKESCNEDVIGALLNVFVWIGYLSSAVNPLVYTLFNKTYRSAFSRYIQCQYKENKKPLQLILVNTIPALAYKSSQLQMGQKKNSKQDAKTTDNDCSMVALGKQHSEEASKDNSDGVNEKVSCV
Chain of human sodium channel NaV1.2 (Q99250 whole entry): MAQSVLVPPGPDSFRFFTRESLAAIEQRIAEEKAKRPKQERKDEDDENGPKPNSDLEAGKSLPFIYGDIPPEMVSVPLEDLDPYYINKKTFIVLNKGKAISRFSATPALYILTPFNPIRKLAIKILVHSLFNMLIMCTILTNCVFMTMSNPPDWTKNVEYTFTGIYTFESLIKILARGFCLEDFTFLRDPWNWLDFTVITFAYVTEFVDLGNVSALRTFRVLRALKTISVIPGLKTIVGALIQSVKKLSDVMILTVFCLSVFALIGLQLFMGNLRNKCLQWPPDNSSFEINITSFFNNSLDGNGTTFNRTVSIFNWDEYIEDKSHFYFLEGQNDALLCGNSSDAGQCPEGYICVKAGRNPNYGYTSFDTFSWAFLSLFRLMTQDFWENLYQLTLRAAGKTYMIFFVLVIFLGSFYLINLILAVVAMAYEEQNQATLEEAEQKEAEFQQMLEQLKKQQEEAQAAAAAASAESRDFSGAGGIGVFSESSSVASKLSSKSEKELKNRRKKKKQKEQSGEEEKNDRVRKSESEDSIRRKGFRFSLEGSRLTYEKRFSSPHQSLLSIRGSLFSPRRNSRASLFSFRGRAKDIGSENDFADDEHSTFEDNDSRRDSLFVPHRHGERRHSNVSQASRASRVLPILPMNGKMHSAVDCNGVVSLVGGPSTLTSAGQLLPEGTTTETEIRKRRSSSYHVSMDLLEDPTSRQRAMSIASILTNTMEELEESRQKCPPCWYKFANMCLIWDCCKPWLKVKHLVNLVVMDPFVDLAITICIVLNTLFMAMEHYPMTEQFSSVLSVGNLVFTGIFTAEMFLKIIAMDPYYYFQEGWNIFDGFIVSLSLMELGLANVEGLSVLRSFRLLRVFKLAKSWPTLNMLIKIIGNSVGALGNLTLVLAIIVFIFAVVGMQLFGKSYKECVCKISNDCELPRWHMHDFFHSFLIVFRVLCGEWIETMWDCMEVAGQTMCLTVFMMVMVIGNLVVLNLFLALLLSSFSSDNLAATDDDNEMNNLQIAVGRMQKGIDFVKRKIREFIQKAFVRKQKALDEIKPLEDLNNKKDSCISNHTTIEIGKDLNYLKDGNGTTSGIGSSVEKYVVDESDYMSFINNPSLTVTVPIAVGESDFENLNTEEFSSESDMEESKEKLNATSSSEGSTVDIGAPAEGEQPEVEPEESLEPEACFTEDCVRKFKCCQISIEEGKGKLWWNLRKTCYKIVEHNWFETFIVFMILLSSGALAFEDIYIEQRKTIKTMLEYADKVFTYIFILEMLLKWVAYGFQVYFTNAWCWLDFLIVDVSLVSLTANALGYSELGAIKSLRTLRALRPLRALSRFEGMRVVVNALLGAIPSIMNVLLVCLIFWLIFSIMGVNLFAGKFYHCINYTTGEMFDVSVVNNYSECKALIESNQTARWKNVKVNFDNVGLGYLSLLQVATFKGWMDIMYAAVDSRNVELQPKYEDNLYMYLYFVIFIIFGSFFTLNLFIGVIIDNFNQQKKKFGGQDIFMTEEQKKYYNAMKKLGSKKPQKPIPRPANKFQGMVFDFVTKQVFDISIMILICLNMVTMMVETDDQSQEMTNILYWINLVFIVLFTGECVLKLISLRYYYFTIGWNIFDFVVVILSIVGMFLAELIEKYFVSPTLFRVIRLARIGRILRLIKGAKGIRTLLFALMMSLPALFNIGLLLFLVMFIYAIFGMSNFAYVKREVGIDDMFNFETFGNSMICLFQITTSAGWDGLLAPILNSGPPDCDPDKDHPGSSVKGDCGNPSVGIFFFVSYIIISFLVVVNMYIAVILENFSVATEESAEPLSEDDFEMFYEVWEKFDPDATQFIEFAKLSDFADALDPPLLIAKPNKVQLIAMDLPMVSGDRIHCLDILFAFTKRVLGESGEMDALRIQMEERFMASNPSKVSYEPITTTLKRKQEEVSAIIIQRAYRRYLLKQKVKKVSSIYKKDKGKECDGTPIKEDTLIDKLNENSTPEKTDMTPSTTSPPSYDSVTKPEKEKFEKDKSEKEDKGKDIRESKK

Structure (SMILES)	inhibition at 1 µM [1, 3] [%]	IC50 ([2]; read-out: 5HT2A IC50) [µM]	IC50 [1, 3] [nM]	also measured
Fc1ccc(OC2CCCCN(CC3CCc4ccccc43)C2)cc1 (stereo not shown) [Example 275, 1-((2,3-dihydro-1H-inden-1-yl)methyl)-3-(4-fluorophenoxy)azepane]	2	0.4		
O=C1c2ccccc2CCN1CCN1C[C@@H]2CC[C@H]1CN2c1ccccc1 [Example 316, 2-(2-((1S,4S)-5-phenyl-2,5-diazabicyclo[2.2.2]octan-2-yl)ethyl)-3,4-dihydroisoquinolin-1(2H)-one]		3.17	80	
c1ccc2c(c1)CCC1(CCN(CC3Cc4cccnc4C3)CC1)O2 (stereo not shown) [Example 411, 1′-((6,7-dihydro-5H-cyclopenta[b]pyridin-6-yl)methyl)spiro[chromane-2,4′-piperidine]]	37	1.2		
OC(COc1ccccc1)CN1CCC2(CCc3ccccc3O2)CC1 (stereo not shown) [Example 439, 1-phenoxy-3-(spiro[chromane-2,4′-piperidin]-1′-yl)propan-2-ol]		0.01	500	
N#Cc1ccccc1OC1CCN(CC2CCOc3ccccc32)CC1 (stereo not shown) [Example 161, 2-((1-(chroman-4-ylmethyl)piperidin-4-yl)oxy)benzonitrile]	12	0.05		
COc1ccc2c(c1)C(CN1CCC(NS(=O)(=O)c3ccc(F)cc3)CC1)CC2 (stereo not shown) [Example 250, 4-fluoro-N-(1-((6-methoxy-2,3-dihydro-1H-inden-1-yl)methyl)piperidin-4-yl)benzenesulfonamide]		0.07	200	
N#Cc1cccc(OC2CCN(CCN3CCc4ccccc4C3=O)CC2)c1 [Example 197, 3-((1-(2-(1-oxo-3,4-dihydroisoquinolin-2(1H)-yl)ethyl)piperidin-4-yl)oxy)benzonitrile]		1.25		inhibition at 10 µM [1, 4]: 47%
Clc1cccc(N2CCN(CCc3ccccc3)CC2)c1 [Example 64, 1-(3-chlorophenyl)-4-phenethylpiperazine]		0.04		inhibition at 10 µM [1, 4]: 93%
Fc1ccc(OC2CCN(CCC3CCOc4ccccc43)CC2)cc1 (stereo not shown) [Example 183, 1-(2-(chroman-4-yl)ethyl)-4-(4-fluorophenoxy)piperidine]		0.04	1590	
Fc1ccc(OC2CCCN(CC3COc4ccccc43)CC2)cc1 (stereo not shown) [Example 272, 1-((2,3-dihydrobenzofuran-3-yl)methyl)-4-(4-fluorophenoxy)azepane]		0.01	830	
c1ccc(O[C@H]2COC3(C2)CN(C[C@@H]2CCc4ccccc42)C3)cc1 (single isomer, unassigned) [Compound 367]		0.28	390	
c1ccc(N2[C@@H]3CC[C@H]2CN(CC2CCc4ccccc42)C3)cc1 (stereo partly drawn) [Example 295, (1R,5S)-3-((2,3-dihydro-1H-inden-1-yl)methyl)-8-phenyl-3,8-diazabicyclo[3.2.1]octane]	2	> 16.7		
O[C@H](COC1CCCCC1)CN1CCC2(CCc3ccccc3O2)CC1 [Example 437, (S)-1-(cyclohexyloxy)-3-(spiro[chromane-2,4′-piperidin]-1′-yl)propan-2-ol]		0.09	3410	
COc1ccccc1OC1COC2(C1)CN(CC1CCc3ccccc31)C2 (stereo not shown) [Example 363, 2-((2,3-dihydro-1H-inden-1-yl)methyl)-7-(2-methoxyphenoxy)-5-oxa-2-azaspiro[3.4]octane]	48	0.62		
O=C1c2ccccc2CCN1CCN1CCC(Oc2ccc(F)cc2)CC1 [Example 200, 2-(2-(4-(4-fluorophenoxy)piperidin-1-yl)ethyl)-3,4-dihydroisoquinolin-1(2H)-one]		0.01		inhibition at 10 µM [1, 4]: 73%
OC(COC1CCCCC1)CN1CCC2(CCc3ccccc32)CC1 (stereo not shown) [Example 400, 1-(cyclohexyloxy)-3-(2,3-dihydrospiro[indene-1,4′-piperidin]-1′-yl)propan-2-ol]				inhibition at 10 µM ([1]; CHO): 102%; IC50 ([2]; 5HT2A IC50, μM): 2.29 µM
O=C1c2ccccc2CCN1CCCN1CCC(Oc2cccnc2)CC1 [Example 220, 2-(3-(4-(pyridin-3-yloxy)piperidin-1-yl)propyl)-3,4-dihydroisoquinolin-1(2H)-one]		0.49		inhibition at 10 µM [1, 4]: 12%
c1ccc2c(c1)CC(CN1CCC3(CCc4ccccc4O3)CC1)C2 [Example 410, 1′-((2,3-dihydro-1H-inden-2-yl)methyl)spiro[chromane-2,4′-piperidine]]		0.1	480	
O=C1c2cc(Cl)ccc2CN1CCN1CCC(Oc2ccc(F)cc2)CC1 [Example 189, 6-chloro-2-(2-(4-(4-fluorophenoxy)piperidin-1-yl)ethyl)isoindolin-1-one]	0	0.18		

Structure (SMILES)	inhibition at 1 µM [1, 3] [%]	IC50 ([2]; read-out: 5HT2A IC50) [µM]	IC50 [1, 3] [nM]	also measured
c1ccc(OC2CCN(CCO[C@H]3CCc4ccccc43)CC2)cc1 [Example 217, (S)-1-(2-((2,3-dihydro-1H-inden-1-yl)oxy)ethyl)-4-phenoxypiperidine]	58	0.28		
COc1ccccc1O[C@@H]1CCN(CC2Cc3ccccc3C2)[C@@H](C)C1 [Example 142, (2S,4R)-1-((2,3-dihydro-1H-inden-2-yl)methyl)-4-(2-methoxyphenoxy)-2-methylpiperidine]		0.3	910	
O[C@H](COC1CCCCC1)CN1CCC2(CCN(c3ccccc3)C2)C1 (stereo partly drawn) [Example 345, (2S)-1-(cyclohexyloxy)-3-(7-phenyl-2,7-diazaspiro[4.4]nonan-2-yl)propan-2-ol]		0.24	1900	
COc1ccc2c(c1)C(CN1CC3CCC1CN3c1ccccc1)CC2 (single isomer, unassigned) [Example 310]		0.03	700	
O[C@H](COc1ccccc1)CN1CCC2(CCc3ccccc3O2)CC1 [Example 440, (S)-1-phenoxy-3-(spiro[chromane-2,4′-piperidin]-1′-yl)propan-2-ol]	-8	0.08		
c1ccc(C2COC3(C2)CN(CC2CCc4ccccc42)C3)cc1 (stereo not shown) [Example 359, 2-((2,3-dihydro-1H-inden-1-yl)methyl)-7-phenyl-5-oxa-2-azaspiro[3.4]octane]	16	0.55		
COc1cccc(OCCN2CCC(Oc3ccccc3)CC2)c1 [Example 224, 1-(2-(3-methoxyphenoxy)ethyl)-4-phenoxypiperidine]		0.17		inhibition at 10 µM [1, 4]: 81%
OC(COC1CCCCC1)CN1C[C@@H]2C[C@H]1CN2c1ccccc1 (stereo partly drawn) [Example 306, 1-(cyclohexyloxy)-3-((1S,4S)-5-phenyl-2,5-diazabicyclo[2.2.1]heptan-2-yl)propan-2-ol]		1.66		inhibition at 10 µM [1, 4]: 60%
COc1ccccc1OC1CCN(CC2c3ccccc3CC2C)CC1 (stereo not shown) [Example 101, 4-(2-methoxyphenoxy)-1-((2-methyl-2,3-dihydro-1H-inden-1-yl)methyl)piperidine]		0.08	370	
Fc1ccc(COC2CCN(CC3CCOc4ccccc43)CC2)cc1 (stereo not shown) [Example 249, 1-(chroman-4-ylmethyl)-4-((4-fluorobenzyl)oxy)piperidine]		0.21	630	
c1ccc2c(c1)CCC1(CCN(CCC3Cc4ccncc4C3)CC1)O2 (stereo not shown) [Example 420, 1′-(2-(6,7-dihydro-5H-cyclopenta[c]pyridin-6-yl)ethyl)spiro[chromane-2,4′-piperidine]]	0	0.25		
Nc1ccc2c(c1)C(CN1CCC(Oc3ccc(F)cc3)CC1)CC2 (stereo not shown) [Example 115, 3-((4-(4-fluorophenoxy)piperidin-1-yl)methyl)-2,3-dihydro-1H-inden-5-amine]		< 0.001	2580	
OC(CO[C@@H]1CCc2ccccc21)CN1CCC(Oc2ccc(F)cc2)CC1 (stereo partly drawn) [Example 236, 1-(((R)-2,3-dihydro-1H-inden-1-yl)oxy)-3-(4-(4-fluorophenoxy)piperidin-1-yl)propan-2-ol]		0.35	550	
COc1ccc2c(c1)C(CN1CC[C@@H](Oc3ccccc3OC)C[C@@H]1C)CC2 (stereo partly drawn) [Example 102, (2S,4R)-1-((6-methoxy-2,3-dihydro-1H-inden-1-yl)methyl)-4-(2-methoxyphenoxy)-2-methylpiperidine]	82	0.15		
CN(C)Cc1ccc2c(c1)C(=O)N(CCN1CCC(Oc3ccc(F)cc3)CC1)CCC2 [Example 211, 8-((dimethylamino)methyl)-2-(2-(4-(4-fluorophenoxy)piperidin-1-yl)ethyl)-2,3,4,5-tetrahydro-1H-benzo[c]azepin-1-one]		0.27		inhibition at 10 µM [1, 4]: 50%
COc1ccc2c(c1)C(CN1CCC(Oc3ccccc3)CC1)CC2 (stereo not shown) [Example 107, 1-((6-methoxy-2,3-dihydro-1H-inden-1-yl)methyl)-4-phenoxypiperidine]		0.004	1990	
c1ccc(OC2CCN(CC3CCc4ccccc43)CC2)cc1 (stereo not shown) [Example 106, 1-((2,3-dihydro-1H-inden-1-yl)methyl)-4-phenoxypiperidine]		0.01	> 10000	
N#Cc1ccc2c(c1)CCC2CN1CCC(Oc2ccc(F)cc2)CC1 (stereo not shown) [Example 121]		0.07	2090	
c1cnc(OC2CCN(CC3CCc4ccccc43)CC2)nc1 (stereo not shown) [Example 125, 2-((1-((2,3-dihydro-1H-inden-1-yl)methyl)piperidin-4-yl)oxy) pyrimidine]	-3	0.08		
